Reference: US12630529B2, “GCN2 modulator compounds” (ALESTA THERAPEUTICS BV, priority 2020, dated 2026)

How the values were obtained:
GCN2 [1] = target: T1, GCN2 (Mus musculus, UniProt Q9QZ05); assay: GCN2 inhibition cell-based assay (P-GCN2 Western blot in Neuro 2a cells); details: amino acid deprived media (DMEM lacking L-cysteine and methionine), 3 hours
T1 construct: endogenous in cells; host or cells: Neuro 2a (N2a)
Experimental: Neuro 2a cells (N2a) were maintained at 37° C. and 5% CO2 in DMEM/F12 medium (Fisher Scientific) supplemented with 10% fetal bovine serum and 1% penicillin-streptomycin (complete medium). 300,000 cells/well were seeded in flat bottom 6 well plates 48 hours before treatment with the compounds.
Testing compounds were prepared at different concentrations ranging from 10 μM to 0.1 nM on DMEM medium lacking L-cysteine and methionine (DMEM-CM) (Gibco) and supplemented with 1% penicillin-streptomycin. Complete medium was used as control of non-stressed condition. After 48 hours, the medium was removed from each well and 2 mL per well of each treatment was added. Cells were treated for 3 hours at 37° C. and 5% CO2.
After the incubation time, each well was washed with sterile 1×PBS and then 100 μL of ice-cold lysis buffer supplemented with phosphatase and protease inhibitors was added. Lysates were transferred to 1.5 mL tubes and sonicated for 3 min, and total protein amounts were quantified using BCA assay (e.g., BCA Protein Assay Kit; Pierce) according to manufacturer instructions. Equal amount of proteins was loaded on SDS-PAGE gels for electrophoresis and then transferred onto 0.2 µm filter pore PVDF membranes.
Membranes were then blocked in blocking buffer containing 3% BSA/0.1% Tween/1×Tris-buffered saline (TBS) for 1 hour and then incubated overnight at 4° C. with agitation with anti-pGCN2 primary antibody (Abcam ab-75836), diluted 1:1,000 in blocking buffer. […] (Sigma Aldrich) was used as a loading control.
Membranes were then incubated with the corresponding secondary antibody to detect immune-reactive bands using enhanced chemiluminescence (e.g., ECL Western Blotting Substrate Pierce).
Images were acquired (e.g., using Chemidoc™ equipment) and quantitated by densitometry using ImageJ software. IC50 values were determined from a concentration-response curve using GraphPad prism software.
IC50 values from P-GCN2 inhibition assay after induction with amino acid deprived media in the presence of different concentrations of test compounds are shown in Table 2. For IC50 values: +++ refers to <10 nM of test compound; ++ refers to 10 nM to 100 nM of test compound; + refers to 100 nM to 1,000 nM of test compound and − refers to >1,000 nM of test compound.
Under GCN2-mediated stress conditions, resulting from an amino acid deprived medium, GCN2 is generally phosphorylated. Accordingly, inhibition of GCN2 phosphorylation as a result of the test compound indicates inhibition of the GCN2 pathway.

GCN2 [2] = target: GCN2 (Homo sapiens, UniProt Q9P2K8); assay: GCN2 enzyme inhibition assay (Reaction Biology EIF2AK4/GCN2 kinase assay); format: biochemical; parameters: purchased Reaction Biology Corp; details: human GCN2 enzyme activity, 10 μM ATP, 20 μM peptide substrate
Sequence of GCN2 (Homo sapiens, UniProt Q9P2K8) (Q9P2K8 whole entry): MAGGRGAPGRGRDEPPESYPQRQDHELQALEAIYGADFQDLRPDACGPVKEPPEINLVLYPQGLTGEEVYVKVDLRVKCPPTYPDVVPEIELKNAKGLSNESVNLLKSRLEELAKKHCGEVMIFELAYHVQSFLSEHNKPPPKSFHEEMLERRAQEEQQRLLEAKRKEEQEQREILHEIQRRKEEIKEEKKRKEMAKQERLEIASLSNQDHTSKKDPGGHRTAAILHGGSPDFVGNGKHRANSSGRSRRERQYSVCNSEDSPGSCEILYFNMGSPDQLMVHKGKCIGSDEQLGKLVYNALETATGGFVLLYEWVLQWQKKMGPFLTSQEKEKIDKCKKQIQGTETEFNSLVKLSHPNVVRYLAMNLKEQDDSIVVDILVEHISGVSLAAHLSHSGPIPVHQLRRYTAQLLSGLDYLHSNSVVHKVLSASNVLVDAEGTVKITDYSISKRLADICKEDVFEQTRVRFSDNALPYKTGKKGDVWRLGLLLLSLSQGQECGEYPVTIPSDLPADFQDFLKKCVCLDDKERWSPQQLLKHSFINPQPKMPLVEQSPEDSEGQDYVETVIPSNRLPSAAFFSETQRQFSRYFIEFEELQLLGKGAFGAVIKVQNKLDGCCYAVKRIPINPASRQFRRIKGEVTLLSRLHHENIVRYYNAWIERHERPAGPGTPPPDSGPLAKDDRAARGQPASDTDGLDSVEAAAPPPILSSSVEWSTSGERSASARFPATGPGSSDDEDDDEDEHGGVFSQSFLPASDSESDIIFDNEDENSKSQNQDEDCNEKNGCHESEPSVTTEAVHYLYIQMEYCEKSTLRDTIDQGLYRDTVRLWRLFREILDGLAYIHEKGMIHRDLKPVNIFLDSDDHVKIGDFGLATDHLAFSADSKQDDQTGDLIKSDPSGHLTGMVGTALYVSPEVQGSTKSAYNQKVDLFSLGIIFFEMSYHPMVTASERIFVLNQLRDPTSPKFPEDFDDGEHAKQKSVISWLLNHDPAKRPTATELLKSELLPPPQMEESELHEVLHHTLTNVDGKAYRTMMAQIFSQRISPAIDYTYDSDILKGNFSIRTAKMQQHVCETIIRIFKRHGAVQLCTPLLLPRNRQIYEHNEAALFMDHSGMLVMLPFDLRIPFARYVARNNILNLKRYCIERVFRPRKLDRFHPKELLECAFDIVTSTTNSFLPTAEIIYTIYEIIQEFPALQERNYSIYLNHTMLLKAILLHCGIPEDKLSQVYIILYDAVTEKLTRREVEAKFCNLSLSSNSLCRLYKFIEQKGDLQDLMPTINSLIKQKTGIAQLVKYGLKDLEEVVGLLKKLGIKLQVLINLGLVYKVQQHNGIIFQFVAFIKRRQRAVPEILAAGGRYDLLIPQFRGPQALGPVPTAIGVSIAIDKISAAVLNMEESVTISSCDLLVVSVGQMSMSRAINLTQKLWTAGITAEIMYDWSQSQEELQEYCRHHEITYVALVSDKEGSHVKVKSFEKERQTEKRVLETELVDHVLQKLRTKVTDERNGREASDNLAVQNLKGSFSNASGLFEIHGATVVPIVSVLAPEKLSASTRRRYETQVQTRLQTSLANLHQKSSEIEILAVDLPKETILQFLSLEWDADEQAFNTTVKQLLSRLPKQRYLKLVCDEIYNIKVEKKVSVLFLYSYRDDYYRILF
Experimental: In order to validate the above results, human GCN2 enzyme activity was measured in Reaction Biology Corp (EIF2AK4/GCN2 kinase assay). Compounds were tested in 5-dose IC50 mode for non-active compounds and 10-dose IC50 mode for active compounds with 3-fold serial dilution starting at 30 μM and 0.1 μM respectively. Control compound Staurosporine was tested in 10-dose IC50 mode with 4-fold serial dilution starting at 20 μM. Reactions were carried out at 10 μM ATP using 20 μM peptide substrate [GRSRSRSRSR]. For IC50 values: +++ refers to <10 nM of test compound; ++ refers to 10 nM to 100 nM of test compound; + refers to 100 nM to 1,000 nM of test compound and − refers to >1,000 nM of test compound.

HT29 cells = assay: Growth of tumor spheroids; format: cell-based; details: 64 μM arginine, up to 120 hours, vs untreated spheroids
Experimental: The growth of tumor spheroids was evaluated following treatment of cells with Compound 1, Compound 2 and Compound 108. Briefly, HT29 cells were seeded at 5,000 cells/well in ultra-low attachment round bottom 96-well plates, in 100 μL SILAC DMEM Flex media without phenol red, supplemented with 10% fetal bovine serum (FBS), 1 g/L glucose, 2 mM glutamine, 220 μM lysine, and 64 μM arginine. The plates were centrifuged for 10 minutes at 125×g and put in a humidified incubator at 37° C. for 3 days before the onset of the experiment to allow spheroids to form.
Three days after seeding, 10 μM Compound 1, 10 μM Compound 2, 10 μM Compound 108 or 10 μM vehicle control (0.1% DMSO), were added together with 100 nM fluorescent apoptosis stain (e.g., YO-PRO™-1 Iodide; Thermo Fisher) to detect apoptotic cells and Nuclear-ID Red DNA Stain (1:100,000; ENZO Life Sciences) to detect live cells. Plates were placed in a live-cell imaging and analysis platform (e.g., IncuCyte ZOOM®; Essenbio) set up in a humidified incubator at 37° C. and scanned every 4 hours for up 120 hours, at 10× magnification, to determine relative spheroid size and cell death. Experiments were performed in quadruplicate and analyzed using live-cell imaging and analysis software (e.g., IncuCyte ZOOM® 2018A software; Essenbio).

CHOP (DDIT3) reporter = assay: GCN2-induction of CHOP and apoptosis in 3T3 fibroblasts with CHOP (DDIT3) reporter construct; format: cell-based, murine; details: for induction of CHOP (mCherry): murine 3T3 WT and GCN2 knockout CHOP reporter cells, stress inducer alone
Experimental: The CHOP construct comprised the […] (UTR) of mouse DDIT3 mRNA fused to a sequence encoding the fluorescent protein mCherry.
Cells were seeded at 5,000 cells per well in flat bottom 96-well plates in 100 μL DMEM low glucose media without phenol red, and supplemented with 10% FBS and 2 mM glutamine. After 24 hours, the exemplary compounds, and either tunicamycin, halofuginone, or histidinol, were added together with 100 nM of fluorescent apoptosis stain (YO-PRO™-1 Iodide; Thermo Fisher) to detect apoptotic cells. Cells were placed in a live-cell imaging and analysis platform (IncuCyte ZOOM®; Essenbio) set up in a humidified incubator at 37° C. and the plates were scanned every 4 hours for up 120 hours, at 10× magnification, to determine cell confluence and cell death. Experiments were performed in duplicate with 3 images collected per well, and analyzed using live-cell imaging and analysis software (IncuCyte ZOOM® 2018A software; Essenbio).

T1 sequence (Q9QZ05 whole entry): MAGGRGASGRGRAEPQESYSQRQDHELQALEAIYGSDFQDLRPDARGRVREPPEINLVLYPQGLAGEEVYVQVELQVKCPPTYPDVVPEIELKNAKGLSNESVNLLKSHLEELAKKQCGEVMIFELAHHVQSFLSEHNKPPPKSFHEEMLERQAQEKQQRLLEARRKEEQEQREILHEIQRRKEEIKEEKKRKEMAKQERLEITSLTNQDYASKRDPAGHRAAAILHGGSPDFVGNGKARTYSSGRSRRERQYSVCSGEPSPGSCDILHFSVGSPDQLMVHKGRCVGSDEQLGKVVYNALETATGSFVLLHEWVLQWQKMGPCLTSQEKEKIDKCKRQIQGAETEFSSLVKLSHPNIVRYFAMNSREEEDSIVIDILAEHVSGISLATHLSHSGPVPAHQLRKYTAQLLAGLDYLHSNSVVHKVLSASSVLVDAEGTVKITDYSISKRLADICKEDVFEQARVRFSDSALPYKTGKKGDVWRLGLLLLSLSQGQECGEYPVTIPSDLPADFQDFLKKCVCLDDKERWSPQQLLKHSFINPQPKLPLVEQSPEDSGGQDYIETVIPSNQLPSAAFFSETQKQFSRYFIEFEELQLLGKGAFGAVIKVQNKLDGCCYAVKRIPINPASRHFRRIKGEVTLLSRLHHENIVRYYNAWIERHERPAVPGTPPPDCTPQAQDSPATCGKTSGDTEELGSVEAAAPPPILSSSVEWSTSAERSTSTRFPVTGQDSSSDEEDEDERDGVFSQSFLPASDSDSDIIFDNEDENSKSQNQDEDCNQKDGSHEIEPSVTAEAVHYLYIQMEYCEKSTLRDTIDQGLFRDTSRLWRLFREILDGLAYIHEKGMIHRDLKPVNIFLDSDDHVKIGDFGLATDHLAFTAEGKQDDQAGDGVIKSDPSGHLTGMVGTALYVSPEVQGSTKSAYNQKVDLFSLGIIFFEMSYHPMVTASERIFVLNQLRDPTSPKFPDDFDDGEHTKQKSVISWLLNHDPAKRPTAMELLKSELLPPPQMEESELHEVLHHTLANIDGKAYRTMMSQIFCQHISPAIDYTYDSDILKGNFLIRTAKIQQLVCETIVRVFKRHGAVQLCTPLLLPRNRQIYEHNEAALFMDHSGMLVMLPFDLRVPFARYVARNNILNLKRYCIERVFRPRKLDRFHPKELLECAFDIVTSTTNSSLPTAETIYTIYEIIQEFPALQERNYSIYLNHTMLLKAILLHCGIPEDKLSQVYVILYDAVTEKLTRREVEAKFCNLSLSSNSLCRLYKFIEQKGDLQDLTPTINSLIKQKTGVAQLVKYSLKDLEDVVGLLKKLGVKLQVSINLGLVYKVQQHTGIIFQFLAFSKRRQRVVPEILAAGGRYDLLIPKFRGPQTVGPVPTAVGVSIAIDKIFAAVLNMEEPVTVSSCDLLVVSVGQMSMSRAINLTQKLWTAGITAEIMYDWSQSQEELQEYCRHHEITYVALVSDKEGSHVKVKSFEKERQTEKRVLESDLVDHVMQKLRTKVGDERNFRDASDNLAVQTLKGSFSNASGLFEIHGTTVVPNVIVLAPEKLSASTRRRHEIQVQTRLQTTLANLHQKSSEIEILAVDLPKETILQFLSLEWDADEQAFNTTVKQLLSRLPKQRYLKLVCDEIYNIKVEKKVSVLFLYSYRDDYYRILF

Compound | IC50 (GCN2 [1]) [µM] | IC50 (GCN2 [2]) [µM] | induction of CHOP (mCherry) (CHOP (DDIT3) reporter) | other results
COc1ncc(Cl)cc1C(=O)Nc1ccc(F)c(C#Cc2cnc(N)nc2)c1F [Compound 3] | > 1 | > 1 |  | 
COc1ncc(Cl)cc1-c1nnc(-c2ccc(F)c(C#Cc3cnc(N)nc3)c2F)o1 [Compound 7] | > 1 | > 1 |  | 
O=C(CC1NCCCC1O)Cn1cnc2cc(Br)c(Cl)cc2c1=O (stereo not drawn) [halofuginone, reference compound] |  |  | induction of CHOP (mCherry) could be observed in the WT cells, but not in the GCN2 knockout cells | 
N[C@H](CO)Cc1c[nH]cn1 [histidinol, L-histidinol, reference compound] |  |  | induction of CHOP (mCherry) could be observed in the WT cells, but not in the GCN2 knockout cells | 
tunicamycin [reference compound] |  |  | significant induction of CHOP in both the WT and GCN2 knockout cell lines | 

More lines, main results first:

IC50 (GCN2 [1]) [µM] | IC50 (GCN2 [2]) [µM] | Compound | induction of CHOP (mCherry) (CHOP (DDIT3) reporter) | other results
> 1 | 0.1 to 1 | COc1ncc(Cl)cc1S(=O)(=O)Nc1ccc(F)c(-c2ccc(-c3cnc(N)nc3)nc2)c1F [Compound 4] |  | 
> 1 | > 1 | Nc1ncc2ccc(-c3c(F)ccc(NS(=O)(=O)c4cc(Cl)ccc4Cl)c3F)cc2n1 [Compound 5] |  | 
> 1 | > 1 | COc1ncc(Cl)cc1S(=O)(=O)Nc1ccc(F)c(-c2ccc3cnc(N)nc3c2)c1F [Compound 6] |  | 
< 0.01 |  | Nc1ncc2cc(-c3c(F)ccc(NS(=O)(=O)c4cc(Cl)cc(CO)c4Cl)c3F)ccc2n1 [Compound 108] |  | spheroid size and viability (HT29 cells): relative reduction in spheroid size and viability in a dose-dependent manner; GCN2 activation / GCN2-induced CHOP activation (CHOP (DDIT3) reporter; murine 3T3 CHOP (mCherry) reporter fibroblasts, increasing concentrations, in the presence of halofuginone or histidinol): reduced GCN2 activation; apoptosis induced by halofuginone (CHOP (DDIT3) reporter; murine 3T3 WT cells, co-treatment with halofuginone): effectively inhibited apoptosis; late-stage apoptosis induced by histidinol (CHOP (DDIT3) reporter; murine 3T3 WT cells, co-treatment with histidinol): increased late-stage apoptosis
